Each structure is given as a SMILES string. Residues, ends and D or L forms follow the SMILES beside them. *: point of attachment. X5 = CCC(=O)OC1(C(=O)C(O)O*)CCC2C3CC(C)C4=CC(=O)C=CC4(C)C3C(O)CC21C; Pentanoyl = CCCCC(=O)*

A word on the melting point: it is the temperature of the solid-liquid transition.

For `Cc1ccc(S(=O)(=O)N2CCN(S(=O)(=O)c3ccc(C)cc3)CCN(S(=O)(=O)c3ccc(C)cc3)CC(CC(C)C)N(S(=O)(=O)c3ccc(C)cc3)CCN(S(=O)(=O)c3ccc(C)cc3)CC2)cc1` (stereo unspecified), the melting point is 142 to 145 °C.

With `CC(C)[C@H](NC(=O)OCc1ccccn1)C(=O)N[C@@H](Cc1ccccc1)[C@H](O)[C@@H](O)[C@H](Cc1ccccc1)NC(=O)[C@@H](NC(=O)N(C)Cc1csc(N)n1)C(C)C`, the melting point lay within 188 to 192 °C.

On to `CCO/N=C(\C)[C@H]1CC[C@H]2[C@@H]3CCC4=CC(=O)CC[C@]4(C)[C@H]3CC[C@]12C`, for which the melting point was 127 to 129 °C.

Take `Cc1ccn2c(-c3ccnc(-c4ccc(OCc5cn(C)cn5)cc4)c3)c(-c3cccc(C)n3)nc2c1`: the melting point was 217 °C.

For the compound `CC(C)(C)c1cc(Cc2cc(C(C)(C)C)cc(-n3nc4ccc(S(=O)(=O)c5ccccc5)cc4n3)c2O)c(O)c(-n2nc3ccc(S(=O)(=O)c4ccccc4)cc3n2)c1`, the melting point fell in the range of 224 to 234 °C.

`CSC(=NS(=O)(=O)c1ccccc1)c1ccccc1` gave a melting point of 150 to 155 °C.

`CCCCCCCCCCOc1cc2c3cc(OCCCCCCCCCC)c(OCCCCCCCCCC)cc3c3c(OC)ccc(OC)c3c2cc1OCCCCCCCCCC`: the melting point was 69 to 70 °C.

Compound `Cc1ccc(S(=O)(=O)NNOC(C)C)cc1` returned a melting point of 112 to 113 °C.

`CCCC(=O)c1cnc2c(C(C)O)cccc2c1Nc1ccccc1C` (stereo unspecified) gave a melting point of 140 to 142 °C.

On to `O=S(=O)(C(/C=C/c1ccc(I)cc1)c1ccc(Br)cc1)C(/C=C/c1ccc(I)cc1)c1ccc(Br)cc1` (stereo unspecified), for which the melting point is 201 to 203 °C.

The compound `CS(C)(=O)=NS(=O)(=O)c1cccc(F)c1C#N` came in with a melting point of 184 °C.

As for `O=C(OCCCOC(=O)C(OCc1ccc(-c2ccc(Cl)cc2)cc1)(C(F)(F)F)C(F)(F)F)C(OCc1ccc(-c2ccc(Cl)cc2)cc1)(C(F)(F)F)C(F)(F)F`, the melting point lay within 93 to 94 °C.

As for `COc1cc(OC)c(/C=C/C(c2ccc(OC)c(NCCCC(=O)O)c2)S(=O)(=O)C(/C=C/c2c(OC)cc(OC)cc2OC)c2ccc(OC)c(NCCCC(=O)O)c2)c(OC)c1` (stereo unspecified), the melting point is 86 to 88 °C.

Take `CC(C)(C)c1cc(SC(Sc2cc(C(C)(C)C)c(O)c(C(C)(C)C)c2)C(Sc2cc(C(C)(C)C)c(O)c(C(C)(C)C)c2)Sc2cc(C(C)(C)C)c(O)c(C(C)(C)C)c2)cc(C(C)(C)C)c1O`: the melting point fell in the range of 221 to 223 °C.

Compound `CC(=O)OCC(CNC(=O)c1c(I)c(C(=O)NCC(COC(C)=O)OC(C)=O)c(I)c(N2CCCCC2=O)c1I)OC(C)=O` (stereo unspecified) showed a melting point of 130 to 134 °C.

The compound `CC(C)OC(=O)C(CCC(C(=O)OC(C)C)N1CCN(CC(=O)OC(C)(C)C)CCN(C=O)CCN(CC(=O)OC(C)(C)C)CC1)N1CCN(CC(=O)OC(C)(C)C)CCN(C=O)CCN(CC(=O)OC(C)(C)C)CC1` (stereo unspecified) came in with a melting point of 125 to 127 °C.

The compound `CC(C)(O)CON1C(C)(C)CC(CCCCNc2nc(NCCCCC3CC(C)(C)N(OCC(C)(C)O)C(C)(C)C3)nc(NCCCCC3CC(C)(C)N(OCC(C)(C)O)C(C)(C)C3)n2)CC1(C)C` had a melting point of 172 to 176 °C.

For the compound `CC[C@H](C)[C@H](NC(=O)N(C)Cc1ccccn1)C(=O)NC(Cc1ccccc1)C(O)C(O)C(Cc1ccccc1)NC(=O)[C@@H](NC(=O)N(C)Cc1ccccn1)[C@@H](C)CC` (stereo partly specified), the melting point lay within 160 to 161 °C.

For `CS(=O)(=O)C1CCN(Cc2ccc(COc3cccc4c3CN(C3CCC(=O)NC3=O)C4=O)cc2)CC1` (stereo unspecified), the melting point is 173 to 175 °C.

In turn, `O=C(NCCCCCCCCCCCCNC(=O)C(O)C(O)C(O)C(O)COC1OC(CO)C(O)C(O)C1O)C(O)C(O)C(O)C(O)COC1OC(CO)C(O)C(O)C1O` (stereo unspecified) came in with a melting point of 114 to 123 °C.

Regarding `CCCCC(=O)NC(C)C(=O)NC(C)C(=O)N1CCCC1C(=O)NC(C(=O)OC(O)C(=O)C1(OC(=O)CC)CCC2C3CC(C)C4=CC(=O)C=CC4(C)C3C(O)CC21C)C(C)C` (stereo unspecified) (Pentanoyl-AAPV-X5; configuration not given here), the melting point is 142 °C.

The values above are taken from a melting point compilation (Tetko et al.).
